Experimental findings from US8242166B2, “C(10) ethyl ester and C(10) cyclopropyl ester substituted taxanes” (Florida State University Research Foundation, Inc., priority 2008, dated 2012) are described below.

The subject of one data set is HCT116. Briefly: MTT cytotoxicity (IC50), HCT116. It is filed as cell-based. The note with it: Homo sapiens, HCT-116, 72 h, read-out: IN Vitro IC50 (nm) HCT116. How it is done: (§1) All cell lines were maintained in RPMI-1640 tissue culture medium (TCM, supplemented with antibiotics and 10% fetal bovine serum) and cultured at 37° C. in humidified air containing 5% CO2. To assess the antiproliferative effects of the test compounds, 172 μL of tumor cell suspension (1.45×10^4 cells/ml) were added to each well of a 96-well plate and incubated for 24 h at 37° C. in 5% CO2 in air to allow cells to adhere. Seven 2-fold drug dilutions in TCM/DMSO were performed in triplicate in separate 96-well plates and 28 μL was transferred to the wells containing tumor cells (200 μL final volume/0.1% DMSO). Plates were incubated for 72 h and cell viability was determined by adding 50 μL of warm TCM containing 5 mg/mL MTT (3-[4,5-dimethylthiazol-2-yl]-2,5-diphenyltetrazolium bromide) to each well and incubating for 1 h at 37° C. Plates were processed and the absorbances of the resulting solutions were measured by a plate reader at 570 nm. […] (GraphPad Prism version 4.00 for Windows). Studies were conducted by Taxolog, Inc., Tallahassee, Fla.

In another data set the test system is HT29. The data set can be described thus: MTT cytotoxicity (IC50), HT29. The following applies: Homo sapiens, HT-29, 72 h, read-out: IN Vitro IC50 (nm) HT29. In kind it is cell-based. How it is done: as §1, with “Compound 17932 was tested in four of these cell lines, while the remaining compounds were tested in all of these cell lines. All” for “All”
Data set [1] has as its system HT29 human tumor xenografts. The data set can be described thus: HT29 xenograft study e139 (Example 23). It is filed as in vivo, nude mice.
A further data set relates to DLD-1. The data set can be described thus: MTT cytotoxicity (IC50), DLD-1. The note with it: Homo sapiens. In kind it is cell-based. The protocol:
as §1, with “Compound 17932 was tested in four of these cell lines, while the remaining compounds were tested in all of these cell lines. All” for “All”

For another data set, the system named is PANC-1. Briefly: MTT cytotoxicity (IC50), PANC-1. In kind it is cell-based. The note with it: Homo sapiens, 72 h, read-out: IN Vitro IC50 (nm) Panc. The protocol:
as §1, with “Compound 17932 was tested in four of these cell lines, while the remaining compounds were tested in all of these cell lines. All” for “All”

The next data set relates to SK-MEL-28. The data set can be described thus: MTT cytotoxicity (IC50), SK-MEL-28. In kind it is cell-based. The following applies: Homo sapiens, 72 h, read-out: IN Vitro IC50 (nm) ske-mel28. The protocol:
as §1, with “Compound 17932 was tested in four of these cell lines, while the remaining compounds were tested in all of these cell lines. All” for “All”

The next data set concerns A375. Briefly: MTT cytotoxicity (IC50), A375. In kind it is cell-based. The note with it: Homo sapiens, A-375. The protocol: as §1, with “Compound 17932 was tested in four of these cell lines, while the remaining compounds were tested in all of these cell lines. All” for “All”
The subject of the next data set is SNB-19. The data set can be described thus: MTT cytotoxicity (IC50), SNB-19. In kind it is cell-based. The following applies: Homo sapiens, 72 h, read-out: IN Vitro IC50 (nm) SNB19. How it is done:
as §1, with “Compound 17932 was tested in four of these cell lines, while the remaining compounds were tested in all of these cell lines. All” for “All”

The test system of data set [2] is human HT29 colon carcinoma xenografts.
The test system of another data set is HOP-18. The data set can be described thus: MTT cytotoxicity (IC50), HOP-18. In kind it is cell-based. The following applies: Homo sapiens, 72 h, read-out: IN Vitro IC50 (nm) HOP18. How it is done: as §1, with “Compound 17932 was tested in four of these cell lines, while the remaining compounds were tested in all of these cell lines. All” for “All”
For another data set, the system named is MALME-3. The data set can be described thus: MTT cytotoxicity (IC50), MALME-3. In kind it is cell-based. The note with it: Homo sapiens, 72 h, read-out: IN Vitro IC50 (nm) Malme3. How it is done:
as §1, with “Compound 17932 was tested in four of these cell lines, while the remaining compounds were tested in all of these cell lines. All” for “All”

The test system of the next data set is TK-10. Briefly: MTT cytotoxicity (IC50), TK-10. It is filed as cell-based. The note with it: Homo sapiens, 72 h, read-out: IN Vitro IC50 (nm) TK10. The protocol: as §1, with “Compound 17932 was tested in four of these cell lines, while the remaining compounds were tested in all of these cell lines. All” for “All”
Another data set relates to OVCAR4. Briefly: MTT cytotoxicity (IC50), OVCAR4. The following applies: Homo sapiens, OVCAR-4, 72 h, read-out: IN Vitro IC50 (nm) OVCAR4. In kind it is cell-based. The protocol:
as §1, with “Compound 17932 was tested in four of these cell lines, while the remaining compounds were tested in all of these cell lines. All” for “All”

Another data set relates to A549. Briefly: MTT cytotoxicity (IC50), A549. The note with it: Homo sapiens, 72 h, read-out: IN Vitro IC50 (nm) A549. In kind it is cell-based. The protocol: as §1, with “Compound 17932 was tested in four of these cell lines, while the remaining compounds were tested in all of these cell lines. All” for “All”
In another data set the test system is 786-0. The data set can be described thus: MTT cytotoxicity (IC50), 786-0. The following applies: Homo sapiens. In kind it is cell-based. How it is done: as §1, with “Compound 17932 was tested in four of these cell lines, while the remaining compounds were tested in all of these cell lines. All” for “All”
The mark [3] stands for this setting: MTT, 72 h, read-out: IN Vitro IC50 (nm) DLD1.
Where [4] appears, read: Resistance MDR1+, read-out: DLD1 Colon (Table 4, quantity not named; IC50 values as Table 2).

Like-named read-outs stand apart in the source and are kept apart here.

In the case of `CC(=O)O[C@@]12CO[C@@H]1C[C@H](O)[C@@]1(C)C(=O)[C@H](OC(=O)C3CC3)C3=C(C)[C@@H](OC(=O)[C@H](O)[C@@H](NC(=O)OC4CCCC4)c4cccs4)C[C@@](O)([C@@H](OC(=O)c4ccccc4)C12)C3(C)C` (stereo partly shown) [Compound 17932], the IC50 in the data set on HCT116 amounted to 0.6 nM; in the data set on HT29, 0.9 nM; in the data set on DLD-1 (setting [3]) it was 1.4 nM; in the data set with DLD-1 (setting [4]), 1.4 nM; in the data set on PANC-1, 1.2 nM. In data set [1] (20 mg/kg i.v. q4d×4), the “MTV (Day 61)” value came to 78 mm^3. Further, the PR responses in data set [1] (20 mg/kg i.v. q4d×4, six mice) worked out at 5. In addition, the “Day 51 mm^3 (tumor size)” value in data set [1] (20 mg/kg iv q4d × 4) turned out to be 99.7 mm^3. In addition, the “Day 54 mm^3 (tumor size)” value in data set [1] (20 mg/kg iv q4d × 4) amounted to 109.4 mm^3. The “Max. BW Loss %; Day” value in data set [1] (20 mg/kg iv q4d × 4) is on record as −19.3%; Day 16. Moreover, the “Number of Death NTR” value in [1] (20 mg/kg iv q4d × 4, N=6) came to 0. The “Number of Death TR” value in data set [1] (20 mg/kg iv q4d × 4, N=6) turned out to be 0.
Turning to `CC(=O)O[C@H]1C(=O)[C@@]2(C)[C@H]([C@H](OC(=O)c3ccccc3)[C@]3(O)C[C@H](OC(=O)[C@H](O)[C@@H](NC(=O)c4ccccc4)c4ccccc4)C(C)=C1C3(C)C)[C@]1(OC(C)=O)CO[C@@H]1C[C@@H]2O` [Paclitaxel, paclitaxel, reference compound], the IC50 with SK-MEL-28 was 5.4 nM; in the data set on A375 (MTT, 72 h, read-out: IN Vitro IC50 (nm) A375), 8 nM; in the data set with A375 (Resistance MRP9, read-out: A375 Melanoma (Table 4, quantity not named; IC50 values as Table 2)), 8 nM; with HT29, 2.8 nM; with SNB-19, 6.1 nM; in the data set with HOP-18 it was 7.2 nM. For the same compound, the IC50 is 6.5 nM in the data set with MALME-3; above 10 nM in the data set with DLD-1 (setting [3]); 41 nM in the data set on DLD-1 (setting [4]); 4.8 nM with TK-10; 2.9 nM in the data set on OVCAR4; 3.8 nM with A549. Also, the IC50 in the data set with 786-0 (MTT, 72 h, read-out: IN Vitro IC50 (nm) 786-0) was above 10 nM; with 786-0 (Resistance MDR1+, read-out: 786-0 Renal (Table 4, quantity not named; IC50 values as Table 2)), above 10 nM; in the data set on PANC-1, 4.1 nM. For the same compound, the “antitumor activity” value in [2] (30 mg/kg q4d×4) is on record as “relatively weak activity”. For the same compound, the “D 38 TTE” value in [2] (mouse, in vivo) is 27.5 ± 1.9 (6) days. In addition, the “Number of Death NTR” value in [2] (mouse, in vivo) came to 0. Besides, the “Number of Death TR” value in data set [2] (mouse, in vivo) worked out at 0.
